Entries after “also recorded” stand apart in the source; their conditions may differ. Like-named read-outs stand apart in the source and are kept apart here.
Legend:
[1] = LC-HRMS, cited from earlier work
Protocol: Concentrations of β-amanitin in biological samples were evaluated following our previous methodology. The standard calibration curves for β-amanitin in mouse plasma ranged from 0.5 to 500 ng/mL and were linear, with a correlation coefficient of 0.9952. The inter- and intra-day accuracy and precision fell within the acceptance criteria (3.1–14.6% of coefficients of variation (CVs) and 92.5–115.0% of accuracy). The extraction recovery and matrix effect of this analytical method were 82.8–88.9% and 93.0–98.6%. Three freeze–thaw cycles (88.7–97.2% accuracy with CVs of 3.6–14.3%), short-term ...

[2] = molecular target: T1, CYP2C19 (Homo sapiens, UniProt P33261); assay: CYP2C19 inhibition in human liver microsomes; type: in vitro ADME; settings: ultrapooled human liver microsomes 0.2 mg/mL, 100 μM [S]-mephenytoin, β-amanitin 0.1–100 μM, pH 7.4, 37 °C, 15 min, LC-MS/MS, n = 3, read-out: IC50, CYP2C19 [S]-mephenytoin 4′-hydroxylase
T1 construct: from tissue; host or cells: ultrapooled human liver microsomes
T1 sequence (P33261 whole entry): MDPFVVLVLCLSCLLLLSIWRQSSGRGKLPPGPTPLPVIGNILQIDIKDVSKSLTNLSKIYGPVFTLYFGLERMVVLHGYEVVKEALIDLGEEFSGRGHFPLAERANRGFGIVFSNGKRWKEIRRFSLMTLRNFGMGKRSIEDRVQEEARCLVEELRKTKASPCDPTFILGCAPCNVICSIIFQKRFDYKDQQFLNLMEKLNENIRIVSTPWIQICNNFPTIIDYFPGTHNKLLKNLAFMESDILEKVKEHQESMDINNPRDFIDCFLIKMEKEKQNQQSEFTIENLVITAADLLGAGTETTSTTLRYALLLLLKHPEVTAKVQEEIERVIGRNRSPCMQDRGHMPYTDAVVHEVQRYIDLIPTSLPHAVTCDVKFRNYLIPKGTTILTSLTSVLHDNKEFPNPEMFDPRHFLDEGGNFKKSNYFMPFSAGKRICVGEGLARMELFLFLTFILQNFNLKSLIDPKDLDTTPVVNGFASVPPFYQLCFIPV
Protocol: (§1) β-amanitin inhibition (IC50 values) of CYP1A2, CYP2A6, CYP2B6, CYP2C8, CYP2C9, CYP2C19, CYP2D6, and CYP3A4 enzyme activities in HLMs were evaluated using LC-MS/MS and CYP substrates as previously described. Each incubation mixture was made up to a volume of 100 μL including HLMs (0.2 mg/mL), 50 mM potassium phosphate buffer (pH 7.4), 1.0 mM NADPH, 10 mM magnesium chloride, various concentrations of β-amanitin (0.1–100 μM), a cocktail of seven CYP probe substrates (50 μM phenacetin for CYP1A2, 2.5 μM coumarin for CYP2A6, 2 μM amodiaquine for CYP2C8, 10 μM diclofenac for CYP2C9, 100 μM [S]-mephenytoin for CYP2C19, 5 μM bufuralol for CYP2D6, and 2.5 μM midazolam for CYP3A4 in acetonitrile), or 50 μM bupropion for CYP2B6. The reactions were initiated with NADPH followed by incubation in a shaking water bath at 37 °C for 15 min with or without 30 min preincubation with NADPH. Reactions were stopped with 50 μL of ice-cold methanol containing ^13C2, ^15N-acetaminophen and d9-1′-hydroxybufuralol (ISs). Incubation mixtures were centrifuged at 13,000× g for 8 min at 4 °C. An aliquot (5 μL) of the supernatant from the reaction mixture was analyzed by the previous LC-MS/MS method.

[3] = molecular target: T2, CYP1A2 (Homo sapiens, UniProt P05177); assay: CYP1A2 inhibition in human liver microsomes; type: in vitro ADME; settings: ultrapooled human liver microsomes 0.2 mg/mL, 50 μM phenacetin, β-amanitin 0.1–100 μM, pH 7.4, 37 °C, 15 min, LC-MS/MS, n = 3, read-out: IC50, CYP1A2 phenacetin O-deethylase
T2 construct: from tissue; host or cells: ultrapooled human liver microsomes
T2 sequence (P05177 1-516): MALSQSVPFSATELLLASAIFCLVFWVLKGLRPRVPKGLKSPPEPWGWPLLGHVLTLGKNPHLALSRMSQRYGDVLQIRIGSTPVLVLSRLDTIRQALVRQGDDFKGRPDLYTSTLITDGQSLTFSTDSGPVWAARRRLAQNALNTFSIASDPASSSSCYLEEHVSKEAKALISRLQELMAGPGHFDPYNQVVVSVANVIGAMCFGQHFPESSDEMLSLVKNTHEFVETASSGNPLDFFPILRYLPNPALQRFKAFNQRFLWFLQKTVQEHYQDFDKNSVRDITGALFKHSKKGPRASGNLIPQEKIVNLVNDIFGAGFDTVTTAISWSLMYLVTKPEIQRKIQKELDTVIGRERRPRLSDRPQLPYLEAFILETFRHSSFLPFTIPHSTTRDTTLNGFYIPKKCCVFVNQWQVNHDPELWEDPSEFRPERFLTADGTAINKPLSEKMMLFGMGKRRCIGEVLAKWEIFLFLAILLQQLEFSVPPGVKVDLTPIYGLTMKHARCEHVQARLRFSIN
Protocol: as §1

[4] = system: mice; assay: Death or toxicity observed during the toxicokinetic study; type: in vivo; settings: male ICR mice
Protocol: β-amanitin was dissolved in water and administered by iv bolus injection into the tail vein of mice at doses of 0.2 (n = 8), 0.4 (n = 6), and 0.8 (n = 7) mg/kg. Blood samples (approximately 15 μL) were collected from the retro-orbital plexus under light anesthesia with isoflurane at 0.033, 0.083, 0.25, 0.5, 0.75, 1, 1.5, 2, 3, 4, 6, and 8 h after drug administration.
β-amanitin was dissolved in water and administered to mice by gavage at doses of 2 (n = 7), 5 (n = 9), and 10 (n = 7) mg/kg. Blood samples (approximately 15 μL) were collected from the retro-orbital plexus under light anesthesia with isoflurane at 0.033, 0.083, 0.166, 0.25, 0.5, 0.75, 1, 1.5, 2, 4, 6, and 8 h after drug administration. Plasma samples (5 μL each) were harvested by centrifugation at 13,000× g for 3 min at 4 °C and stored at −80 °C until analysis.

[5] = molecular target: T3, CYP3A4 (Homo sapiens, UniProt P08684); assay: CYP3A4 inhibition in human liver microsomes; type: in vitro ADME; settings: ultrapooled human liver microsomes 0.2 mg/mL, 2.5 μM midazolam, β-amanitin 0.1–100 μM, pH 7.4, 37 °C, 15 min, LC-MS/MS, n = 3, read-out: IC50, CYP3A4 midazolam 1′-hydroxylase
T3 construct: from tissue; host or cells: ultrapooled human liver microsomes
T3 sequence (P08684 whole entry): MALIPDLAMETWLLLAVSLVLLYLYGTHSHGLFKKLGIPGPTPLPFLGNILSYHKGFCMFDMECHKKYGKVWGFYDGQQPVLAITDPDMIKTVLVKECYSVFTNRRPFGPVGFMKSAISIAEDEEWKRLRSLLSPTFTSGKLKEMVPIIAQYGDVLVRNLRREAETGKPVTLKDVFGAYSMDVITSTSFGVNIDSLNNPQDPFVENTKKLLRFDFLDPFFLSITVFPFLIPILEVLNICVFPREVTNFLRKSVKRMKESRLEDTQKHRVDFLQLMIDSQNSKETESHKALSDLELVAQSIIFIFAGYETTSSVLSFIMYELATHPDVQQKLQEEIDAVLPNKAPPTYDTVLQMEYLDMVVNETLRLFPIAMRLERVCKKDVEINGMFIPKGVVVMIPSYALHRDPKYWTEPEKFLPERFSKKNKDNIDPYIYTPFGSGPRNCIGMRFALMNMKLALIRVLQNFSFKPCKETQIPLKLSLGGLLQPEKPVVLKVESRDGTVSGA
Protocol: as §1

[6] = with 30 min NADPH preincubation

For `CC[C@H](C)[C@@H]1NC(=O)CNC(=O)[C@@H]2Cc3c([nH]c4cc(O)ccc34)[S@+]([O-])C[C@H](NC(=O)CNC1=O)C(=O)N[C@@H](CC(=O)O)C(=O)N1C[C@H](O)C[C@H]1C(=O)N[C@@H]([C@@H](C)[C@@H](O)CO)C(=O)N2` [β-amanitin], which “Stability, short-term storage for 2 h on ice (accuracy)” value ([1]; mouse plasma, CVs of 3.6–7.4%) is on record?
The value was 94.7–97.9%.

What about the “Stability, three freeze–thaw cycles (accuracy)” value ([1]; mouse plasma, CVs of 3.6–14.3%) of the same molecule?
The value was 88.7–97.2%.

And the “Stability, long-term storage for 2 weeks at −80 °C (accuracy)” value ([1]; mouse plasma, CVs of 3.7–9.1%)?
Its value is 90.4–105.0%.

And the “Post-preparation stability for 24 h in 4 °C autosampler (accuracy)” value ([1]; processed mouse plasma samples, CVs of 6.8–7.5%)?
The value was 90.7–94.1%.

What about the IC50 [2, 6] of the same molecule?
The IC50 was greater than 100 µM.

What about the IC50 ([2]; without NADPH preincubation) of the same molecule?
The IC50 was greater than 100 µM.

What about the IC50 [3, 6] of the same molecule?
Its IC50 is greater than 100 µM.

What about the IC50 ([3]; without NADPH preincubation) of the same molecule?
The IC50 was greater than 100 µM.

What about the “Death or serious toxicity after intravenous bolus administration” value ([4]; iv bolus via tail vein 0.2, 0.4 and 0.8 mg/kg) of the same molecule?
The value was “did not cause death or serious toxicity; also recorded: did not cause toxicity”.

What about the “Death or serious toxicity after oral administration” value ([4]; oral gavage 2, 5 and 10 mg/kg) of the same molecule?
Its value is “did not cause death or serious toxicity; also recorded: did not cause toxicity”.

What about the IC50 [5, 6] of the same molecule?
The IC50 was greater than 100 µM.

What about the IC50 ([5]; without NADPH preincubation) of the same molecule?
Its IC50 is greater than 100 µM.
